Reference: patent US6562606B1, “Methods and compositions for disrupting the epithelial barrier function” (The Regents of the University of California, priority 1993, dated 2003)
Where a name gives a salt, the structure may show the parent alone. Read-outs that look alike come from different tables or passages of the source.

Assays:
[1] = test system: intact pig skin; experiment: TEWL of intact pig skin under occlusion (Hilltop chamber), testosterone formulations; assay type: in vivo; conditions: for barrier integrity / barrier permeability (TEWL) vs occlusion and TS controls, in words: Tables 9-11; for 6 h Post TEWL (x baseline): 6 h after removal of formulation
[2] = test system: hairless mice; experiment: Epidermal barrier disruption: marker (propylene glycol, cyclophenol) profile in stratum corneum by IR and tape-stripping; assay type: in vivo
Description: To determine the epidermal barrier disruption by application of fluindostatin, an animal testing was conducted in the manner as follows: Hairless mice (two animals, B and C) were topically pretreated with fluindostatin for 7 days. In a control group, animals (two) were only treated with a vehicle. […] The parameters for the vehicle in all of the experiments herein are as follows: […] N=14. After treatment, the skin surface was cleaned and stratum corneum allowed to recover to its normal state of hydration for 2 hours. An IR spectrum of the hydrophilic marker compound, propylene glycol, was recorded, and a single tape-stripping was conducted at the treated skin site. Another spectrum was recorded followed by the removal of a. second tape strip. The same sequence was repeated 10 times. FIGS. 4A, 4B show the test results. […] In essentially the same manner, cyclophenol (CP) was used as a.lipophilic marker. Tape-stripping was repeated 7 times after application of fluindostatin.

[3] = test system: hairless mouse; experiment: TEWL recovery after oleic acid treatment; assay type: in vivo; conditions: 30 μl of 1.5% fluindostatin or 0.25% TOFA in propylene glycol/ethanol 7:3, two hours after 5% oleic acid (FIG. 6A, 6B)
Description: A female hairless mouse, aged 8 weeks, was treated with oleic acid. After oleic acid treatment, fluindostatin and/or 5-tetradecyloxy-2-furancarboxylic acid (TOFA) was applied to the animal.
TEWL (trans-epidermal water loss) was measured before and after treatment at convenient time intervals when the animal was alert. An Evaporimeter (ServoMed) was used.
First, TEWL of the left (LHS) and right (RHS) dorsal sides was measured. Then, the animal was anesthetized by 0.25 ml chloral hydrate (CH) IP injection. At t=0, an aliquot of 30 μl oleic acid solution (5% in propylene glycol/ethanol 7:3 (v/v)) was applied directly to both sides of the animal (˜1.5×3 cm) using a Hamilton syringe. […] TEWL was measured thereafter every 2 or 3 hours.

[4] = test system: hairless mice; experiment: TEWL (water permeability) 4 hours after application to acetone-treated skin; assay type: in vivo; conditions: for stratum corneum water permeability (TEWL), increase vs vehicle in words: statistical significance vs vehicle, concentrations and skin treatment as in Tables 2-7
[5] = Transdermal LHRH delivery: plasma level by radioimmunoassay, ratio to vehicle; conditions: ratio of LHRH plasma levels (RIA) after tested delivery compound(s) to vehicle; acid lipase vs its vehicle MES
[6] = topical; literature (J. Clin. Invest. 88, 1991); cited from earlier work
[7] = lidocaine, solitary enhancer Conc 0.5 %, acetone-treated skin
[8] = statistical significance vs vehicle, concentrations and skin treatment as in Tables 2-7
[9] = solitary agent, Conc 0.5 %, acetone-treated skin
[10] = solitary agent, Conc 1.0 %, acetone-treated skin

Compound: CCCCCCCC/C=C\CCCCCCCC(=O)O[C@H]1CC[C@@]2(C)C(=CC[C@H]3[C@@H]4CC[C@H]([C@H](C)CCCC(C)C)[C@@]4(C)CC[C@@H]32)C1 [CHO, Cholesterol Oleate]
- 24 h TEWL (x baseline) ([1]; Table 9, 0.05 weight %, 24 h): 1.53 x baseline
- 48 h TEWL (x baseline) ([1]; Table 9, 0.05 weight %): 2.16 x baseline
- 72 h TEWL (x baseline) ([1]; Table 9, 0.05 weight %): 2.71 x baseline
- barrier integrity / barrier permeability (TEWL) vs occlusion and TS controls, in words ([1]; intact pig skin): comparable to or superior to both controls

Compound: CC(C)n1c(/C=C/C(O)CC(O)CC(=O)O)c(-c2ccc(F)cc2)c2ccccc21 (stereo not shown) [Fluindostatin]
- disruption of the stratum corneum barrier (both marker data sets) ([2]; PG and CP markers): caused significant disruption of the stratum corneum barrier
- cyclophenol (lipophilic marker) concentration profile in stratum corneum ([2]; tape-stripping repeated 7 times, vs vehicle control (FIG. 5A, 5B)): a lower, constant concentration level of CP
- propylene glycol (hydrophilic marker) concentration profile in stratum corneum ([2]; topical pretreatment 7 days, IR spectra over 10 tape-strippings, vs vehicle control (FIG. 4A, 4B)): lower absolute levels of PG in the stratum corneum, and a constant concentration level of PG
- recovery of the barrier (TEWL) after oleic acid disruption [3]: delay the recovery of the barrier
- TEWL (T = 4 hours) ([4]; 4 h): 431 ± 46
- stratum corneum water permeability (TEWL), increase vs vehicle in words [4]: significantly increased it

Compound: CC[C@H](C)C(=O)O[C@H]1CCC=C2C=C[C@H](C)[C@H](CC[C@@H]3C[C@@H](O)CC(=O)O3)[C@H]21 [MEV, Mevastatin]
- 24 h TEWL (x baseline) ([1]; Table 9, 0.08 weight %, 24 h after first administration): 1.75 x baseline
- 48 h TEWL (x baseline) ([1]; Table 9, 0.08 weight %): 2.39 x baseline
- 72 h TEWL (x baseline) ([1]; Table 9, 0.08 weight %): 3.72 x baseline
- 24 h TEWL (x baseline) ([1]; Table 9, 0.12 weight %, 24 h): 1.79 x baseline
- 48 h TEWL (x baseline) ([1]; Table 9, 0.12 weight %): 2.75 x baseline
- 72 h TEWL (x baseline) ([1]; Table 9, 0.12 weight %): 3.72 x baseline
- 6 h Post TEWL (x baseline) ([1]; Table 10, 0.006 weight %): 1.24 ± 0.29 x baseline
- 24 h TEWL (x baseline) ([1]; Table 10, 0.006 weight %, 24 h): 1.55 ± 0.29 x baseline
- 48 h TEWL (x baseline) ([1]; Table 10, 0.006 weight %): 2.13 ± 0.38 x baseline
- 72 h TEWL (x baseline) ([1]; Table 10, 0.006 weight %): 1.75 ± 0.21 x baseline
- 6 h Post TEWL (x baseline) ([1]; Table 10, 0.10 weight %): 2.25 ± 0.8 x baseline
- 24 h TEWL (x baseline) ([1]; Table 10, 0.10 weight %, 24 h): 1.93 ± 0.58 x baseline
- 48 h TEWL (x baseline) ([1]; Table 10, 0.10 weight %): 3.77 ± 1.42 x baseline
- 72 h TEWL (x baseline) ([1]; Table 10, 0.10 weight %): 3.04 ± 0.86 x baseline
- 6 h Post TEWL (x baseline) ([1]; Table 10, 0.25 weight %): 1.90 ± 0.28 x baseline
- 24 h TEWL (x baseline) ([1]; Table 10, 0.25 weight %, 24 h): 1.47 ± 0.18 x baseline
- 48 h TEWL (x baseline) ([1]; Table 10, 0.25 weight %): 2.66 ± 1.00 x baseline
- 72 h TEWL (x baseline) ([1]; Table 10, 0.25 weight %): 2.43 ± 0.51 x baseline
- barrier integrity / barrier permeability (TEWL) vs occlusion and TS controls, in words ([1]; intact pig skin): decreased barrier integrity to a substantial degree over that provided by either control
- capacity to deliver testosterone (TS) vs both controls, in words ([1]; intact pig skin, said to be shown in Table 11): superior capacity of MEV to deliver testosterone (TS) over that of both controls

Compound: CCCC[C@@H](C)[C@@H](OC(=O)C[C@@H](CC(=O)O)C(=O)O)[C@H](C[C@@H](C)C[C@H](O)CCCC[C@@H](O)C[C@H](O)[C@H](C)N)OC(=O)C[C@@H](CC(=O)O)C(=O)O [fumonisin B1, Fumonisin B1]
- Plasma Conc. (% dose/ml plasma) [7]: 0.24 ± 0.03 % dose/ml plasma
- Total Body Conc. (%) [7]: 14.58 ± 0.73%
- lidocaine delivery, increase vs vehicle in words [8]: very significantly increased lidocaine delivery
- LHRH Delivery Ratio vs. Vehicle [5]: 3.8
- TEWL (T = 4 hours) [4, 9]: 440 ± 149

Compound: N-Palmitoyl-DL-dihydroxysphingosine [N-palmitoyl-DL-hydroxysphingosine]
- Plasma Conc. (% dose/ml plasma) (mouse, in vivo): 0.21 ± 0.03 % dose/ml plasma
- Total Body Conc. (%) (mouse, in vivo): 6.88 ± 0.69%
- lidocaine delivery, increase vs vehicle in words (mouse, in vivo): significantly increased it
- TEWL (T = 4 hours) [4, 9]: 793 ± 124
- stratum corneum water permeability (TEWL), increase vs vehicle in words [4]: very significantly increased water permeability

Compound: O[C@H]1[C@H](O)[C@@H](O)[C@@H]2O[C@@H]2[C@@H]1O [conduritol-β-epoxide, Conduritol-β-epoxide]
- water permeability (TEWL), increase vs vehicle in words ([4]; frequently applied to intact skin): statistically significant increased lidocaine delivery and water permeability
- TEWL (T = 4 hours) ([4]; solitary agent, Conc 4.0 %, intact skin, TID, total 7-8 doses): 184 ± 39
- TEWL (T = 4 hours) ([4]; solitary agent, Conc 4.0 %, single application, acetone-treated skin): 253 ± 33
- stratum corneum water permeability (TEWL), increase vs vehicle in words [4]: failing even nearly significantly to increase either water permeability or lidocaine delivery

Compound: N[C@@H](CCl)C(=O)O [β-chloroalanine, β-Chloroalanine]
- lidocaine delivery, increase vs vehicle in words [8]: significant increase
- recovery of barrier function, assessed as transepidermal water loss [6]: slow barrier recovery
- TEWL (T = 4 hours) [4, 10]: 263 ± 35
- stratum corneum water permeability (TEWL), increase vs vehicle in words [4]: did not increase stratum corneum water permeability

Compound: CCN(CC)CCCC(C)Nc1ccnc2cc(Cl)ccc12 (stereo not shown) [CQ, Chloroquine]
- barrier integrity / barrier permeability (TEWL) vs occlusion and TS controls, in words ([1]; intact pig skin): increase barrier permeability to TS to a degree significantly superior to that provided by either control at all time points

Compound: CC(C)CCC[C@@H](C)[C@H]1CC[C@H]2[C@@H]3CC=C4C[C@@H](OS(=O)(=O)O)CC[C@]4(C)[C@H]3CC[C@]12C [cholesterol sulfate, Cholesterol sulfate]
- lidocaine delivery, increase vs vehicle in words [8]: statistically very significant increase in lidocaine delivery
- TEWL (T = 4 hours) [4, 10]: 508 ± 169
- stratum corneum water permeability (TEWL), increase vs vehicle in words [4]: significantly increased it

Compound: CCCCCCCC/C=C\CCCCCCCC(=O)NCCO [N-oleoylethanolamine, N-Oleoylethanolamine]
- 24 h TEWL (x baseline) ([1]; Table 9, 0.03 weight %, 24 h): 1.46 x baseline
- 48 h TEWL (x baseline) ([1]; Table 9, 0.03 weight %): 2.25 x baseline
- 72 h TEWL (x baseline) ([1]; Table 9, 0.03 weight %): 3.15 x baseline
- 24 h TEWL (x baseline) ([1]; Table 9, 0.10 weight %, 24 h): 1.67 x baseline
- 48 h TEWL (x baseline) ([1]; Table 9, 0.10 weight %): 2.45 x baseline
- 72 h TEWL (x baseline) ([1]; Table 9, 0.10 weight %): 3.68 x baseline
- barrier integrity / barrier permeability (TEWL) vs occlusion and TS controls, in words ([1]; intact pig skin): increases barrier permeability in a dose response manner
- TEWL (T = 4 hours) [4, 9]: 720 ± 229
- stratum corneum water permeability (TEWL), increase vs vehicle in words [4]: very significantly increased water permeability

Compound: CCCCCCCCCCCCCCOc1ccc(C(=O)O)o1 [TOFA, 5-tetradecyloxy-2-furancarboxylic acid]
- recovery of the barrier (TEWL) after oleic acid disruption [3]: delay the recovery of the barrier
- TEWL (T = 4 hours) [4, 10]: 520 ± 31
- stratum corneum water permeability (TEWL), increase vs vehicle in words [4]: very significantly increased water permeability

Compound: CC[C@H](C)C(=O)O[C@H]1C[C@@H](C)C=C2C=C[C@H](C)[C@H](CC[C@@H]3C[C@@H](O)CC(=O)O3)[C@H]21 [lovastatin, Lovastatin]
- recovery of barrier function, assessed as transepidermal water loss [6]: impair the recovery of barrier function

Compound: Gramicidin D [GD]
- barrier integrity / barrier permeability (TEWL) vs occlusion and TS controls, in words ([1]; intact pig skin): increase barrier permeability to TS to a degree significantly superior to that provided by either control at all time points

Compound: Bromophenacylbromide
- water permeability (TEWL), increase vs vehicle in words ([4]; solitary agent on intact skin): but not water permeability
- TEWL (T = 4 hours) ([4]; solitary agent, Conc 0.15 %, intact skin): 98 ± 47
- TEWL (T = 4 hours) ([4]; solitary agent, Conc 0.2 %, acetone-treated (prepermeabilized) skin): 690 ± 177
- stratum corneum water permeability (TEWL), increase vs vehicle in words [4]: very significant increases of both lidocaine delivery and water permeability
